IC50 data for 15 compounds are collected here from patent publication US11459330B2, “Substituted bicyclic heterocyclic compounds as PRMT5 inhibitors” (LUPIN LIMITED, priority 2017, dated 2022).

Test [1] concerns PANC-1 cells. Kind of test: Anti-cancer assay (Panc-1), cell viability CellTiterGlo. The conditions noted are these: Homo sapiens, PANC-1, 168 h, 7 days. The class given is cell-based. The procedure: (§1) Anticancer Activity Assay
(§2) Z-138 cells were seeded at a density of 2000-3000 cells per well in culture media (IMDM+10% FBS). PANC-1 (ATCC, CRL-1469™) and MIA PaCa-2 (ATCC, CRL-1420™) cells were seeded at a density of 200-300 cells per well in culture media (DMEM+10% FBS). Cells were seeded in opaque, flat bottomed tissue culture grade 96-well plates and Z-138 cells (suspension) were seeded and treated on the same day with various concentrations of test compounds. PANC-1 and MIA PaCa-2 cells, being adherent, were kept for overnight settlement at standard cell culture conditions (37° C., 5% CO2). On the following day, cells were treated with various concentrations of test compounds. Cells were treated with test compounds for a period of 96 h, 7 days and 10 days, for Z-138 cells, PANC-1 cells and MIA PaCa-2 cells, respectively. Cell viability was assessed using CellTiterGlo™ (Promega, USA) as per manufacturer's instructions. Relative Light Units (RLU) were read in Synergy™ 2 reader (Biotek, USA). The assay measures cellular ATP as an indicator of cell viability. RLU is proportional to the number of viable cells in the respective well.
(§3) % inhibition of cell viability was calculated relative to the vehicle control samples containing media with 0.1% DMSO alone as per the formula below. (Avg. of Untreated Control−Avg. of Test)×100 Avg. of Untreated Control
(§4) The IC50 values of individual compounds were calculated with Non Linear Regression Analysis using Graph Pad Prism (Graph Pad software, Inc, USA).
Anti-Cancer Assay (Panc-1)
(In general: Cellular ATP, detected with luciferase, serves as a proxy for viable cell number.)

The subject of test [2] is Z-138 cells. Nature of the test: SDMA inhibition assay. The following applies: Homo sapiens, 48 h, activity range 1.1 nM to 50 nM. The test is classed as cell-based. The procedure:
SDMA Inhibition Assay Protocol Z-138 cells (ATCC, CRL-3001™) were seeded at a density of 1 million cells/well in transparent, flat bottomed tissue culture grade 48-well plates. Cells were treated with various concentration of test compounds for a period of 48 h. Cell lysate was prepared using 1×CST Lysis buffer (Cell Signaling Technology, USA) and 500 ng/well/50 μL of lysate in pH 9.6 carbonate buffer was coated on 96-well Maxisorb plate and incubated overnight at 4° C. The plate was washed twice in 1×PBS containing 0.05% Tween 20 and blocked in 1% BSA for 1 h at ambient temperature. Further, the plate was incubated first with primary antibody (anti-SDMA antibody; CST #13222s) at ambient temperature for 2 h and then with HRP-conjugated secondary antibody at ambient temperature for 1 h with 2 intermittent washing steps in between.
For luminiscence based detection, HRP substrates (substrate A+substrate B in a 1:1 proportion) were added followed by luminiscence reading after 30 min in Synergy™ 2 reader (Biotek, USA).
For absorbance based detection, TMB substrate was added followed by addition of STOP solution (2N H2SO4) post colour development and absorbance ([…]) was measured in Synergy™ 2 reader (Biotek, USA). % inhibition of SDMA was calculated relative to the vehicle control samples containing media with 0.1% DMSO alone as per the formula below. (Avg. of Untreated Control−Avg. of Test)×100 Avg. of Untreated Control
as §4

Test [3] has as its target PRMT5:MEP50 (Homo sapiens, UniProt O14744). Nature of the test: PRMT5 biochemical HTRF assay (Biochemical Assay Protocol 1 / 2). The conditions noted are these: biotinylated H4R3 substrate, 1 μM SAM, protocol 1 or 2 not given, activity range 300 pM to 950 pM, read-out: IC50 (PRMT5 inhibition), activity range. The procedure:
Biochemical Assay Protocol 1
(§5) Inhibitory effect of compounds on PRMT5 was assessed using HTRF detection technology in biochemical assay. Biotinylated H4R3 (residues 1-21) was used as a substrate. Compounds were pre-incubated with 15-25 ng PRMT5:MEP50 per well of a 384-well plate for 30 min at room temperature in the assay buffer containing 20 mM Bicine, pH 7.6, 25 mM NaCl, 2 mM DTT, 0.01% Chicken albumin and 0.01% Tween-20. Reaction was initiated by adding 1 μM of SAM and 50 nM biotinylated H4R3. Total assay volume was 15 μL. Reaction was continued for 120 min at room temperature. Then detection solution containing Streptavidin-Eu cryptate, anti-rabbit IgG-XL-665, Histone H4R3 Dimethyl Symmetric (H4R3me2s) Polyclonal Antibody, all prepared in HTRF detection buffer was added and further incubated for 30 min at room temperature. HTRF signal was recorded in PHERAStar microplate reader. Ratio of signal obtained at 665 nm and 620 nm was used to compute the percent inhibition of compound as follows % Inhibition=100−((Test Ratio−Negative control Ratio)/(Positive control Ratio−Negative control Ratio)*100) where Positive control=PRMT5+SAM+H4R3 Negative control=PRMT5+H4R3 Biochemical Assay Protocol 2
as §5, with “2.5” for “15-25”, “4 h” for “120 min”, “control=PRMT5+H4R3” for “control=PRMT5+H4R3 Biochemical Assay Protocol 2”
For orientation: Time-resolved FRET reads energy transfer from a long-lived donor to a nearby acceptor.

Test [4] deals with Z-138 cells. Nature of the test: Anti-cancer assay (Z-138), cell viability CellTiterGlo. The test is classed as cell-based. The following applies: Homo sapiens, 96 h, activity range, lower bound in pM, upper bound in nM. The procedure:
as §1, §2, §3, §4
Anti-Cancer Assay (Z-138)

Where [5] appears, read: activity range, lower bound in pM, upper bound in nM.

Chain of PRMT5:MEP50 (O14744 whole entry): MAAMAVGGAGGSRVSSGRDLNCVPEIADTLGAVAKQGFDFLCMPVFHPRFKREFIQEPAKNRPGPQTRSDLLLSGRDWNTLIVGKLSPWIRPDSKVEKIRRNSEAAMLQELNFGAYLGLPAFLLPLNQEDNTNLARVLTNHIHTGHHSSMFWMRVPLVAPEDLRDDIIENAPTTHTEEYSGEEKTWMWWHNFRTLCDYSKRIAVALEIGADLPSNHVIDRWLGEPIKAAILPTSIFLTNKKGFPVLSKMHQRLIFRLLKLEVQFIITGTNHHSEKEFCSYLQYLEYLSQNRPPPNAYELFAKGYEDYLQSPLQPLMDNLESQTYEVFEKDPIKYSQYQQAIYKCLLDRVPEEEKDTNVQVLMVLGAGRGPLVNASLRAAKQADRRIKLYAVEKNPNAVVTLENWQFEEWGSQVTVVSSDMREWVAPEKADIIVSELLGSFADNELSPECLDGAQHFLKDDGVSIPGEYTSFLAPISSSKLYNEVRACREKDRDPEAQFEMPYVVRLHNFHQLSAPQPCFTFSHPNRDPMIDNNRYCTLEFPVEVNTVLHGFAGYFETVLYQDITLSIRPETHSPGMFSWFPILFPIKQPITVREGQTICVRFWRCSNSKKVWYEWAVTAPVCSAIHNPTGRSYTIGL
Chain of PRMT5:MEP50 (Q9BQA1 whole entry partner): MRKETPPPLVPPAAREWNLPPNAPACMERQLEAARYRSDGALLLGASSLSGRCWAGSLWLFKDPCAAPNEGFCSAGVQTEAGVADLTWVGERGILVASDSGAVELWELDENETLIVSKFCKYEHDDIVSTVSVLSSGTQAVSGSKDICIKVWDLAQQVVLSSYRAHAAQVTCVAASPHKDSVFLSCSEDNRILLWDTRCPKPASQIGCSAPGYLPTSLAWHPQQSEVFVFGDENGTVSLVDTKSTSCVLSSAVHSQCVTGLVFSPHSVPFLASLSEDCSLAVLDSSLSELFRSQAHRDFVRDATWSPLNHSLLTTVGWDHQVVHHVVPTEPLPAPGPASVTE

For orientation: IC50 means the concentration needed to halve the response being measured. Regarding `CC(Cc1cc(F)c2cc(Cl)c(N)nc2c1)C1=C[C@@H](n2ccc3c(N)ncnc32)[C@H](O)[C@@H]1O` (single isomer, unassigned) [Compound-33a], the IC50 in test [1] (activity range 20 nM to 100 nM) was in the range of 20000 to 100000 pM; in test [2], 1.1 to 50 nM.

For the compound `Cc1ncnc2c1ccn2[C@@H]1C=C(C(C)Cc2cc(F)c3cc(Cl)c(N)nc3c2)[C@@H](O)[C@H]1O` (single isomer, unassigned) [Compound-35b], the IC50 in test [2] lay within 1.1 to 50 nM; in test [3], 0.3 to 0.95 nM.

For the compound `CC(Cc1ccc2cc(Br)c(N)nc2c1)[C@@]12C[C@@H]1[C@@H](n1ccc3c(N)ncnc31)[C@H](O)[C@@H]2O` (single isomer, unassigned) [Compound-76a], the IC50 in test [2] lay in the range of 1.1 to 50 nM; in test [4] it was 101 to 1000 pM; in test [3], 0.3 to 0.95 nM.

For `CC(Cc1ccc2cc(Br)c(N)nc2c1)C1=C[C@@H](n2ccc3c(N)ncnc32)[C@H](O)[C@@H]1O` (stereo partly drawn) [7b, (1S,2R,5R)-3-(1-(2-Amino-3-bromoquinolin-7-yl)propan-2-yl)-5-(4-amino-7H-pyrrolo[2,3-d]pyrimidin-7-yl)cyclopent-3-ene-1,2-diol], the IC50 in test [1] (setting [5]) lay in the range of 300 to 20000 pM; in test [4], 101 to 1000 pM.

In the case of `CC(Oc1cc(F)c2cc(Cl)c(N)nc2c1)C1=C[C@@H](n2ccc3c(N)ncnc32)[C@H](O)[C@@H]1O` (stereo partly drawn) [Compound-20b, (1S,2R,5R)-3-(1-((2-amino-3-chloro-5-fluoroquinolin-7-yl)oxy)ethyl)-5-(4-amino-7H-pyrrolo[2,3-d]pyrimidin-7-yl)cyclopent-3-ene-1,2-diol], the concentration for half-maximal inhibition (IC50) in test [4] lay within 101 to 1000 pM.

As to `Nc1nc2cc(CCC3=C[C@@H](n4ccc5c(N)ncnc54)[C@H](O)[C@@H]3O)c(F)cc2cc1Cl` [Compound-25, (1S,2R,5R)-3-(2-(2-amino-3-chloro-6-fluoroquinolin-7-yl)ethyl)-5-(4-amino-7H-pyrrolo[2,3-d]pyrimidin-7-yl)cyclopent-3-ene-1,2-diol], the IC50 fell in the range of 300 to 20000 pM in test [1] (setting [5]), 1.1 to 50 nM in test [2] and 0.3 to 0.95 nM in test [3].

As for `Nc1nc2c(F)c(CCC3=C[C@@H](n4ccc5c(N)ncnc54)[C@H](O)[C@@H]3O)ccc2cc1Cl` [Compound-26, (1S,2R,5R)-3-(2-(2-amino-3-chloro-8-fluoroquinolin-7-yl)ethyl)-5-(4-amino-7H-pyrrolo[2,3-d]pyrimidin-7-yl)cyclopent-3-ene-1,2-diol], the values for the concentration for half-maximal inhibition (IC50) in test [4] and in test [3] were 101 to 1000 pM and 0.3 to 0.95 nM, respectively.

For `Cn1cc(-c2ncnc3c2ccn3[C@@H]2C=C(CCc3cc(F)c4cc(Cl)c(N)nc4c3)[C@@H](O)[C@H]2O)cn1` [Compound-32, (1S,2R,5R)-3-(2-(2-amino-3-chloro-5-fluoroquinolin-7-yl)ethyl)-5-(4-(1-methyl-1H-pyrazol-4-yl)-7H-pyrrolo[2,3-d]pyrimidin-7-yl)cyclopent-3-ene-1,2-diol], the IC50 in test [2] is 1.1 to 50 nM.

Consider `Cc1ncnc2c1ccn2[C@@H]1C=C(CCc2cc(F)c3cc(Cl)c(N)nc3c2)[C@@](C)(O)[C@H]1O` [Compound-39, (1S,2R,5R)-3-(2-(2-amino-3-chloro-5-fluoroquinolin-7-yl)ethyl)-2-methyl-5-(4-methyl-7H-pyrrolo[2,3-d]pyrimidin-7-yl)cyclopent-3-ene-1,2-diol], for which the IC50 in test [1] (activity range 20 nM to 100 nM) fell in the range of 20000 to 100000 pM; in test [4], 101 to 1000 pM.

Regarding `Nc1nc2cc(CCC3=C[C@@H](n4ccc5c(N)ncnc54)[C@H](O)[C@@H]3O)cc(F)c2cc1Br` [Compound-43, (1S,2R,5R)-3-(2-(2-Amino-3-bromo-5-fluoroquinolin-7-yl)ethyl)-5-(4-amino-7H-pyrrolo[2,3-d]pyrimidin-7-yl)cyclopent-3-ene-1,2-diol], the results for the IC50 in test [1] (setting [5]) and in test [3] were 300 to 20000 pM and 0.3 to 0.95 nM, respectively.

As to `Nc1ccc2c(F)cc(CCC3=C[C@@H](n4ccc5c(N)ncnc54)[C@H](O)[C@@H]3O)cc2n1` [Compound-47, (1S,2R,5R)-3-(2-(2-amino-5-fluoroquinolin-7-yl)ethyl)-5-(4-amino-7H-pyrrolo[2,3-d]pyrimidin-7-yl)cyclopent-3-ene-1,2-diol], the results for the 50% inhibitory concentration (IC50) in test [1] (setting [5]) and in test [3] were 300 to 20000 pM and 0.3 to 0.95 nM, respectively.

With `Nc1nc2cc(CC[C@@]34C[C@@H]3[C@@H](n3ccc5c(N)ncnc53)[C@H](O)[C@@H]4O)ccc2cc1Cl` [Compound-61, (1R,2R,3S,4R,5S)-1-(2-(2-Amino-3-chloroquinolin-7-yl)ethyl)-4-(4-amino-7H-pyrrolo[2,3-d]pyrimidin-7-yl)bicyclo[3.1.0]hexane-2,3-diol], the figures for the 50% inhibitory concentration (IC50) in test [1] (setting [5]) and in test [3] were 300 to 20000 pM and 0.3 to 0.95 nM, respectively.

Consider `Nc1nc2cc(CC[C@@]34C[C@@H]3[C@@H](n3ccc5c(N)ncnc53)[C@H](O)[C@@H]4O)c(F)cc2cc1Cl` [Compound-62, (1R,2R,3S,4R,5S)-1-(2-(2-Amino-3-chloro-6-fluoroquinolin-7-yl)ethyl)-4-(4-amino-7H-pyrrolo[2,3-d]pyrimidin-7-yl) bicyclo[3.1.0]hexane-2,3-diol], for which the IC50 was 20000 to 100000 pM in test [1] (activity range 20 nM to 100 nM), 1.1 to 50 nM in test [2] and 101 to 1000 pM in test [4].

For `Nc1nc2cc(CC[C@@]34C[C@@H]3[C@@H](n3ccc5c(N)ncnc53)[C@H](O)[C@@H]4O)c(F)cc2cc1Br` [Compound-64, (1R,2R,3S,4R,5S)-1-(2-(2-amino-3-bromo-6-fluoroquinolin-7-yl)ethyl)-4-(4-amino-7H-pyrrolo[2,3-d]pyrimidin-7-yl)bicyclo[3.1.0]hexane-2,3-diol], the IC50 in test [1] (setting [5]) fell in the range of 300 to 20000 pM; in test [2], 1.1 to 50 nM; in test [4], 101 to 1000 pM.

`Nc1nc2cc(CC[C@@]34C[C@@H]3[C@@H](n3ccc5c(N)ncnc53)[C@H](O)[C@@H]4O)ccc2cc1Br` [Compound-73, (1R,2R,3S,4R,5S)-1-(2-(2-Amino-3-bromoquinolin-7-yl)ethyl)-4-(4-amino-7H-pyrrolo [2,3-d]pyrimidin-7-yl)bicyclo[3.1.0]hexane-2,3-diol]: the figures for the IC50 in test [1] (setting [5]) and in test [3] were 300 to 20000 pM and 0.3 to 0.95 nM, respectively.
